In ChEMBL document CHEMBL1151200, “Comparison of fascaplysin and related alkaloids: a study of structures, cytotoxicities, and sources” (J Nat Prod, 2004):

What was measured:
[1] = tested on: L1210; assay: Cytotoxicity against mouse L1210 cells at 3.4 ug/disk by disk diffusion soft agar colony formation assay; format: functional
[2] = tested on: MC-38; assay: Cytotoxicity against mouse C38 cells at 3.4 ug/disk by disk diffusion soft agar colony formation assay; format: functional
[3] = Cytotoxicity against mouse CFU-GM cells at 3.4 ug/disk by disk diffusion soft agar colony formation assay; format: cell-based
[4] = Cytotoxicity against human H116 cells at 3.4 ug/disk by disk diffusion soft agar colony formation assay; format: functional
[5] = Cytotoxicity against human H125 cells at 3.4 ug/disk by disk diffusion soft agar colony formation assay; format: functional
[6] = tested on: CCRF-CEM; assay: Cytotoxicity against human CEM cells at 3.4 ug/disk by disk diffusion soft agar colony formation assay; format: functional
[7] = Cytotoxicity against human H116 cells at 0.8 ug/disk by disk diffusion soft agar colony formation assay; format: functional
[8] = Cytotoxicity against human H125 cells at 0.8 ug/disk by disk diffusion soft agar colony formation assay; format: functional
[9] = tested on: CCRF-CEM; assay: Cytotoxicity against human CEM cells at 0.8 ug/disk by disk diffusion soft agar colony formation assay; format: functional
[10] = tested on: L1210; assay: Cytotoxicity against mouse L1210 cells at 200 ug/dusk by disk diffusion soft agar colony formation assay; format: functional
[11] = tested on: MC-38; assay: Cytotoxicity against mouse C38 cells at 200 ug/disk by disk diffusion soft agar colony formation assay; format: functional
[12] = Cytotoxicity against mouse CFU-GM cells at 200 ug/disk by disk diffusion soft agar colony formation assay; format: cell-based
[13] = Cytotoxicity against human H116 cells at 200 ug/disk by disk diffusion soft agar colony formation assay; format: functional
[14] = tested on: A549; assay: Antitumor activity against human A549/ATCC cells; format: functional, cell-based
[15] = tested on: EKVX; assay: Antitumor activity against human EKVX cells; format: functional, cell-based
[16] = tested on: HOP-62; assay: Antitumor activity against human HOP62 cells; format: functional, cell-based
[17] = tested on: NCI-H226; assay: Antitumor activity against human NCI-H226 cells; format: functional, cell-based
[18] = tested on: NCI-H23; assay: Antitumor activity against human NCI-H23 cells; format: functional, cell-based
[19] = tested on: NCI-H322M; assay: Antitumor activity against human NCI-H322M cells; format: functional, cell-based
[20] = tested on: NCI-H460; assay: Antitumor activity against human NCI-H460 cells; format: functional, cell-based
[21] = tested on: NCI-H522; assay: Antitumor activity against human NCI-H522 cells; format: functional, cell-based
[22] = tested on: COLO 205; assay: Antitumor activity against human COLO205 cells; format: functional, cell-based
[23] = tested on: HCC 2998; assay: Antitumor activity against human HCC2998 cells; format: functional, cell-based
[24] = tested on: HCT-116; assay: Antitumor activity against human HCT116 cells; format: functional, cell-based
[25] = tested on: HCT-15; assay: Antitumor activity against human HCT15 cells; format: functional, cell-based
[26] = tested on: HT-29; assay: Antitumor activity against human HT-29 cells; format: functional, cell-based
[27] = tested on: KM12; assay: Antitumor activity against human KM12 cells; format: functional, cell-based
[28] = tested on: SW-620; assay: Antitumor activity against human SW620 cells; format: functional, cell-based
[29] = tested on: SF-268; assay: Antitumor activity against human SF268 cells; format: functional, cell-based
[30] = tested on: SF-295; assay: Antitumor activity against human SF295 cells; format: functional, cell-based
[31] = tested on: SF-539; assay: Antitumor activity against human SF539 cells; format: functional, cell-based
[32] = tested on: SNB-19; assay: Antitumor activity against human SNB19 cells; format: functional, cell-based
[33] = tested on: SNB-75; assay: Antitumor activity against human SNB75 cells; format: functional, cell-based
[34] = tested on: U-251; assay: Antitumor activity against human U251 cells; format: functional, cell-based
[35] = tested on: LOX IMVI; assay: Antitumor activity against human LOXIMVI cells; format: functional, cell-based
[36] = tested on: Malme-3M; assay: Antitumor activity against human MALME-3M cells; format: functional, cell-based
[37] = tested on: M14; assay: Antitumor activity against human M14 cells; format: functional, cell-based
[38] = tested on: SK-MEL-28; assay: Antitumor activity against human SK-MEL-28 cells; format: functional, cell-based
[39] = tested on: SK-MEL-5; assay: Antitumor activity against human SK-MEL-5 cells; format: functional, cell-based
[40] = tested on: UACC-257; assay: Antitumor activity against human UACC257 cells; format: functional, cell-based
[41] = tested on: UACC-62; assay: Antitumor activity against human UACC62 cells; format: functional, cell-based
[42] = tested on: IGROV-1; assay: Antitumor activity against human IGROV1 cells; format: functional, cell-based
[43] = tested on: OVCAR-3; assay: Antitumor activity against human OVCAR-3 cells; format: functional, cell-based
[44] = tested on: OVCAR-4; assay: Antitumor activity against human OVCAR4 cells; format: functional, cell-based
[45] = tested on: OVCAR-5; assay: Antitumor activity against human OVCAR5 cells; format: functional, cell-based
[46] = tested on: OVCAR-8; assay: Antitumor activity against human OVCAR8 cells; format: functional, cell-based
[47] = tested on: SK-OV-3; assay: Antitumor activity against human SKOV3 cells; format: functional, cell-based
[48] = Antitumor activity against human 786-O cells; format: functional, cell-based; details: 786-0
[49] = tested on: A498; assay: Antitumor activity against human A498 cells; format: functional, cell-based
[50] = tested on: ACHN; assay: Antitumor activity against human ACHN cells; format: functional, cell-based
[51] = tested on: CAKI-1; assay: Antitumor activity against human Caki1 cells; format: functional, cell-based
[52] = tested on: RXF 393; assay: Antitumor activity against human RXF393 cells; format: functional, cell-based
[53] = tested on: SN12C; assay: Antitumor activity against human SN12C cells; format: functional, cell-based
[54] = tested on: TK-10; assay: Antitumor activity against human TK10 cells; format: functional, cell-based
[55] = tested on: UO-31; assay: Antitumor activity against human UO31 cells; format: functional, cell-based
[56] = tested on: PC-3; assay: Antitumor activity against human PC3 cells; format: functional, cell-based
[57] = tested on: DU-145; assay: Antitumor activity against human DU145 cells; format: functional, cell-based
[58] = tested on: MCF7; assay: Antitumor activity against human MCF7 cells; format: functional, cell-based
[59] = tested on: MCF7; assay: Antitumor activity against […] human MCF7 cells; format: functional, cell-based
[60] = tested on: MDA-MB-231; assay: Antitumor activity against human MDA-MB-231 cells; format: functional, cell-based
[61] = Antitumor activity against human Hs 578T cells; format: functional, cell-based
[62] = tested on: MDA-MB-435; assay: Antitumor activity against human MDA-MB-435 cells; format: functional, cell-based
[63] = tested on: MDA-N; assay: Antitumor activity against human MDA-N cells; format: functional, cell-based
[64] = tested on: BT-549; assay: Antitumor activity against human BT549 cells; format: functional, cell-based
[65] = tested on: T47D; assay: Antitumor activity against human T47D cells; format: functional, cell-based
[66] = tested on: L1210; assay: Cytotoxicity against mouse L1210 cells at 0.4 ug/disk by disk diffusion soft agar colony formation assay; format: functional
[67] = tested on: MC-38; assay: Cytotoxicity against mouse C38 cells at 0.4 ug/disk by disk diffusion soft agar colony formation assay; format: functional
[68] = Cytotoxicity against mouse CFU-GM cells at 0.4 ug/disk by disk diffusion soft agar colony formation assay; format: cell-based
[69] = Cytotoxicity against human H116 cells at 0.4 ug/disk by disk diffusion soft agar colony formation assay; format: functional
[70] = Cytotoxicity against human H125 cells at 0.4 ug/disk by disk diffusion soft agar colony formation assay; format: functional
[71] = tested on: CCRF-CEM; assay: Cytotoxicity against human CEM cells at 0.4 ug/disk by disk diffusion soft agar colony formation assay; format: functional
[72] = tested on: CCRF-CEM; assay: Antitumor activity against human CCRF-CEM cells; format: functional, cell-based
[73] = tested on: HL-60(TB); assay: Antitumor activity against human HL-60(TB) cells; format: functional, cell-based
[74] = tested on: K562; assay: Antitumor activity against human K562 cells; format: functional, cell-based
[75] = tested on: MOLT-4; assay: Antitumor activity against human MOLT4 cells; format: functional, cell-based
[76] = tested on: RPMI-8226; assay: Antitumor activity against human RPMI8226 cells; format: functional, cell-based
[77] = tested on: SR; assay: Antitumor activity against human SR cells; format: functional, cell-based
[78] = tested on: L1210; assay: Cytotoxicity against mouse L1210 cells at 18 ug/disk by disk diffusion soft agar colony formation assay; format: functional
[79] = tested on: MC-38; assay: Cytotoxicity against mouse C38 cells at 18 ug/disk by disk diffusion soft agar colony formation assay; format: functional
[80] = Cytotoxicity against mouse CFU-GM cells at 18 ug/disk by disk diffusion soft agar colony formation assay; format: cell-based
[81] = Cytotoxicity against human H116 cells at 18 ug/disk by disk diffusion soft agar colony formation assay; format: functional
[82] = Cytotoxicity against human H125 cells at 18 ug/disk by disk diffusion soft agar colony formation assay; format: functional
[83] = tested on: CCRF-CEM; assay: Cytotoxicity against human CEM cells at 18 ug/disk by disk diffusion soft agar colony formation assay; format: functional

O=C1c2ccccc2-[n+]2ccc3c([nH]c4cc(Br)ccc43)c21.[Cl-]
Activity [1]: 550 Zone units | Activity [2]: 450 Zone units | Activity [3]: 350 Zone units | Activity [4]: 600 Zone units | Activity [5]: 750 Zone units | Activity [6]: 400 Zone units | Activity [7]: 400 Zone units | Activity [8]: 500 Zone units | Activity [9]: 200 Zone units

COC(=O)c1ccc(Br)cc1-[n+]1ccc2c(c1)[nH]c1ccccc12.[Cl-]
Activity [10]: 350 Zone units | Activity [11]: 400 Zone units | Activity [12]: 250 Zone units | Activity [13]: 200 Zone units

O=C1c2ccccc2-[n+]2ccc3c([nH]c4ccccc43)c21.[Cl-] [FASCAPLYSIN CHLORIDE]
IC50 [14]: 4.2 µM | IC50 [15]: 5.1 µM | IC50 [16]: 4.7 µM | IC50 [17]: 9.6 µM | IC50 [18]: 4.5 µM | IC50 [19]: 5 µM | IC50 [20]: 4.2 µM | IC50 [21]: 4.5 µM | IC50 [22]: 1.2 µM | IC50 [23]: 1.7 µM | IC50 [24]: 0.6 µM | IC50 [25]: > 10 µM | IC50 [26]: > 10 µM | IC50 [27]: 4.6 µM | IC50 [28]: 3.7 µM | IC50 [29]: > 10 µM | IC50 [30]: 3.9 µM | IC50 [31]: 4.2 µM | IC50 [32]: 6.1 µM | IC50 [33]: 5.4 µM | IC50 [34]: 3.6 µM | IC50 [35]: > 10 µM | IC50 [36]: 0.36 µM | IC50 [37]: 0.92 µM | IC50 [38]: 9.3 µM | IC50 [39]: 2 µM | IC50 [40]: > 10 µM | IC50 [41]: 4.9 µM | IC50 [42]: 4.5 µM | IC50 [43]: 1.5 µM | IC50 [44]: 5.3 µM | IC50 [45]: 4.4 µM | IC50 [46]: > 10 µM | IC50 [47]: > 10 µM | IC50 [48]: 6.7 µM | IC50 [49]: 5.2 µM | IC50 [50]: > 10 µM | IC50 [51]: 6.1 µM | IC50 [52]: 3.5 µM | IC50 [53]: 4.2 µM | IC50 [54]: 5.4 µM | IC50 [55]: > 10 µM | IC50 [56]: > 10 µM | IC50 [57]: 4.9 µM | IC50 [58]: > 10 µM | IC50 [59]: > 10 µM | IC50 [60]: > 10 µM | IC50 [61]: > 10 µM | IC50 [62]: 0.56 µM | IC50 [63]: 0.56 µM | IC50 [64]: > 10 µM | IC50 [65]: > 10 µM | Activity [66]: 400 Zone units | Activity [67]: 500 Zone units | Activity [68]: 200 Zone units | Activity [69]: 500 Zone units | Activity [70]: 400 Zone units | Activity [71]: 300 Zone units | IC50 [72]: > 10 µM | IC50 [73]: > 10 µM | IC50 [74]: > 10 µM | IC50 [75]: > 10 µM | IC50 [76]: > 10 µM | IC50 [77]: > 10 µM

COC(=O)c1ccccc1-[n+]1ccc2c(c1)[nH]c1ccccc12.[Cl-] [RETICULATINE]
Activity [78]: 450 Zone units | Activity [79]: 600 Zone units | Activity [80]: 350 Zone units | Activity [81]: 500 Zone units | Activity [82]: 600 Zone units | Activity [83]: 500 Zone units
